Data from patent US20100113607A1, “Pharmaceutical Compositions” (priority 2000, published 2010).

Test system: onychomycosis
Assay: Topical treatment of a laser-perforated nail of a patient suffering from onychomycosis
Format: in vivo, human
Conditions: composition containing 10% terbinafine by total weight, administered to laser-perforated nail, once daily for 12 weeks
Experimental: A composition containing 10% terbinafine based on the total weight of the composition is prepared and administered to a laser-perforated nail of a patient suffering from onychomycosis once daily for 12 weeks.

CN(C/C=C/C#CC(C)(C)C)Cc1cccc2ccccc12 [terbinafine]
clinical effectiveness: progress of clinical effectiveness is seen with growth of the healthy nail
